Source: patent publication US20110230476A1, “PI3 KINASE INHIBITORS AND USES THEREOF” (AVILA THERAPEUTICS, INC., priority 2009, published 2011)

Key:
PI3Kγ (p120γ) = biological target: T1, PI3Kγ (p120γ) (Homo sapiens, UniProt P48736); test: HTRF assay, potency against active PI3Kγ; format: biochemical; details: [ATP]=50 μM, [di-C8-PIP2]=10 μM, 30 min pre-incubation, read-out: PI3Kγ Inhibition
T1 construct: purchased BPS Bioscience (San Diego, Calif.) or Millipore (Billerica, Mass.)
Description: Homogeneous Time Resolved Fluorescence (HTRF) Assay Protocol for Potency Assessment Against the Active Forms of PI3Kα, PI3Kβ, and PI3Kγ
The protocol below describes an end-point, competition-binding HTRF assay used to measure inherent potency of test compounds against active PI3Kα (p110α/p85α), PI3Kβ (p110β/p85α), and PI3Kγ (p120γ) enzymes. The mechanics of the assay platform are best described by the vendor (Millipore, Billerica, Mass.) on their website at the following URL: www.millipore.com/coa/tech1/74jt4z.
Briefly, Stop solution (Stop A, #33-007 and Stop B, #33-009; 3:1 ratio) and Detection Mix (from DMC, #33-015 with DMA, #33-011 and DMB, #33-013; 18:1:1 ratio) were prepared as recommended by the manufacturer about 2 hrs prior to use. Additionally, 1× reaction buffer (from 4× buffer stock# 33-003), 1.4× stocks of PI3Kα, PI3Kβ, and PI3Kγ enzymes from BPS Bioscience (San Diego, Calif.) or Millipore (Billerica, Mass.) with di-C8-PIP2 lipid substrate (#33-005), and a 4×ATP solution (#A7699 Sigma/Aldrich; St. Louis, Mo.) were prepared in 1× reaction buffer. 15 μL of PI3K enzymes and lipid substrate mix were pre-incubated in a Corning (#3573) 384-well, black, non-treated microtiter plate (Corning, N.Y.) for 30 min at 25° C. with a 0.5 μL volume of 50% DMSO and serially diluted compounds prepared in 50% DMSO. Lipid kinase reactions were started with the addition of 5 μL of ATP solution, mixed for 15 sec on a rotary plate shaker and incubated for 30-60 minutes at 25° C. Next, reactions were stopped with a 5 μL addition of Stop solution immediately followed by a 5 μL volume of Detection Mix. Stopped reactions were equilibrated for 1 and 18 hrs at room temperature and read in a Synergy^4 plate reader from BioTek (Winooski, Vt.) at λex330-80/λem620-35 and λem665-7.5. At the conclusion of each assay, the HTRF ratio from fluorescence emission values for each well was calculated and % Inhibition determined from averaged controls wells (+/−PI3K enzyme). % Inhibition values for each compound were then plotted against inhibitor concentration to estimate IC50 from log [Inhibitor] vs Response, Variable Slope model in GraphPad Prism from GraphPad Software (San Diego, Calif.).
[Reagent] used in optimized protocol: • [p110α/p85α]=0.5-1.5 nM, [ATP]=50 μM, [di-C8—PIP2]=10 μM • [p110β/p85α]=0.75 nM, [ATP]=50 μM, [di-C8—PIP2]=10 μM • [p120γ]=2-2.5 nM, [ATP]=50 μM, [di-C8—PIP2]=10 μM • (ATP KMapp for both enzymes was estimated to be 40-70 μM)

PI3Kα (p110α/p85α) = biological target: T2, PI3Kα (p110α/p85α) (Homo sapiens, UniProt P42336); test: HTRF assay, potency against active PI3Kα; format: biochemical; details: HTRF; [ATP]=50 μM, [di-C8-PIP2]=10 μM; 30 min pre-incubation; read-out: PI3Kα Inhibition
T2 construct: purchased BPS Bioscience (San Diego, Calif.) or Millipore (Billerica, Mass.)
Method in brief: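 Active p110/p85α lipid kinase reactions were started with ATP and run 30-60 minutes at 25 °C, then stopped and developed with HTRF detection mix. HTRF ratio converted to % inhibition against ±enzyme controls; IC50 from log[inhibitor] vs response, variable slope.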

Phospho-Akt(Ser473) = test: Dose response in SKOV3 cells as determined by in-cell Western; format: cell-based; details: Homo sapiens, SK-OV-3; SKOV3 cells, 1 hr; read-out: pAKT Inhibition in cell Western
Experimental: Dose Response in SKOV3 Cells as Determined by in-Cell Western
Twenty four hours later the media was removed and replaced with 100 ul media containing test compound or control compound and cells were returned to the incubator for 1 hr. At the end of the hour, the media was removed and the cells were washed once with PBS, then fixed for 20 minutes at room temperature in 4% formaldehyde in PBS. The formaldehyde was removed and cells were washed 5 times for 5 minutes with 100 ul of Permeabilization Buffer (PBS+0.1% Triton X-100) at room temperature with gentle shaking. The last wash was removed and replaced with 150 ul of Odyssey Blocking Buffer (Li-Cor, Lincoln, Nebr.) and incubated for 90 minutes at room temperature with gentle shaking.
The Blocking Buffer was then replaced with 50 ul of primary antibody mix (rabbit anti-Phospho-Akt(Ser473) at 1:100 (Cell Signaling Technology, Boston, Mass.) and mouse anti-tubulin at 1:5000 (Sigma Aldrich, St. Louis, Mo.) diluted in Odyssey Blocking Buffer) and incubated overnight at room temperature with gentle shaking.
The next morning, the antibody mix was removed and the wells were washed 5 times for 5 minutes with PBS+0.1% Tween-20. The last wash was replaced with 50 ul of secondary antibody mix (goat anti-rabbit-IRDye-680 and goat anti-mouse-IRDye-800 (Li-Cor), both diluted 1:1000 in Odyssey Blocking Buffer+0.2% Tween-20) and incubated for 1 hour at room temperature with gentle shaking. The antibody mix was removed and the wells were washed 5 times for 5 minutes in PBS+0.1% Tween-20, then 1 time with ddH2O.
The plates were scanned on an Odyssey machine (Li-Cor) with a 3 mm focus offset at an intensity of 8 in both channels and the data was analyzed using the Odyssey software.

T2 sequence (P42336 whole entry): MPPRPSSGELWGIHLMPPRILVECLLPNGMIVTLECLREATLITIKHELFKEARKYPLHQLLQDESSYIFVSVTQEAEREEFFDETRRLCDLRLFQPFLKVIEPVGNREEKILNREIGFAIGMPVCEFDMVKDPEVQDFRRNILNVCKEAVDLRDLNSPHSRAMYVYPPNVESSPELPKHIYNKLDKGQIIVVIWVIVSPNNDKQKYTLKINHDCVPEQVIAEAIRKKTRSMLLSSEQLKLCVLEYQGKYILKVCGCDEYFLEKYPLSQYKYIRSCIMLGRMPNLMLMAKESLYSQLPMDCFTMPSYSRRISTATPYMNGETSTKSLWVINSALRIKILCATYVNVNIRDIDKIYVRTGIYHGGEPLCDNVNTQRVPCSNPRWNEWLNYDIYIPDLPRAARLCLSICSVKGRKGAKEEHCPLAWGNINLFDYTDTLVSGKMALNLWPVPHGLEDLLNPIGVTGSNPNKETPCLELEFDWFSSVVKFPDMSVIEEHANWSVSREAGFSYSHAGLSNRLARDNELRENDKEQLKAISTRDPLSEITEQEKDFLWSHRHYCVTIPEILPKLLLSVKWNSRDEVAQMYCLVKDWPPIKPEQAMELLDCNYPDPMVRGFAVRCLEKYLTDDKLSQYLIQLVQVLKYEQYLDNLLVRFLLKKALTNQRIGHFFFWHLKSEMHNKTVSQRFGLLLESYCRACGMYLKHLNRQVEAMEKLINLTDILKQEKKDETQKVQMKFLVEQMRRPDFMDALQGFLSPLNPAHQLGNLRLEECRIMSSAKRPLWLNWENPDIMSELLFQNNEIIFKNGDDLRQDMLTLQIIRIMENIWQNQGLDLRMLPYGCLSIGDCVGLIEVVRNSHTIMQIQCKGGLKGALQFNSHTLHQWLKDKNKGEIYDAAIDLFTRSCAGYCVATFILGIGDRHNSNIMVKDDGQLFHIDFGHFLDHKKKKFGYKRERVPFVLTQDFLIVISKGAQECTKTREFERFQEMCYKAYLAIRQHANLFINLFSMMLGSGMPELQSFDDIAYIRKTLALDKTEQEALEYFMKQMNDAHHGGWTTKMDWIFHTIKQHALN
T2 sequence (P27986 whole entry partner): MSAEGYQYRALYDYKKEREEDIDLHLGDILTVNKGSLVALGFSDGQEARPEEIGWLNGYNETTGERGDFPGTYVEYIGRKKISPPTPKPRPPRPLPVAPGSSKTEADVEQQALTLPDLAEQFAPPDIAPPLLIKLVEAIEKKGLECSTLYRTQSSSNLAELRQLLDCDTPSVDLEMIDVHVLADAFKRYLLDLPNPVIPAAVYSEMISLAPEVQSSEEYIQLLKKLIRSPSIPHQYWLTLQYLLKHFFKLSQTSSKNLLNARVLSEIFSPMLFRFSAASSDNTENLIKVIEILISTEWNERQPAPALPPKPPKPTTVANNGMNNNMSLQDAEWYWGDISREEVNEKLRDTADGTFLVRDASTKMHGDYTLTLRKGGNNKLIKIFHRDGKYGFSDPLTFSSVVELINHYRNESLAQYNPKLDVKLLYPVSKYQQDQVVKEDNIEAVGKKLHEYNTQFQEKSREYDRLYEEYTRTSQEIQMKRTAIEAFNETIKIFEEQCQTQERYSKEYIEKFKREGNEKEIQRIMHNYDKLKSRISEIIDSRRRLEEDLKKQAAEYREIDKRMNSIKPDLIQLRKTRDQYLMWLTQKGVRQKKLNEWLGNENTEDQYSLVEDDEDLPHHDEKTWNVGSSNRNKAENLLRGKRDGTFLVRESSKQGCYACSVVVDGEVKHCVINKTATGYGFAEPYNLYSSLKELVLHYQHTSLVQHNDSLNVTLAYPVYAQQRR
T1 sequence (P48736 whole entry): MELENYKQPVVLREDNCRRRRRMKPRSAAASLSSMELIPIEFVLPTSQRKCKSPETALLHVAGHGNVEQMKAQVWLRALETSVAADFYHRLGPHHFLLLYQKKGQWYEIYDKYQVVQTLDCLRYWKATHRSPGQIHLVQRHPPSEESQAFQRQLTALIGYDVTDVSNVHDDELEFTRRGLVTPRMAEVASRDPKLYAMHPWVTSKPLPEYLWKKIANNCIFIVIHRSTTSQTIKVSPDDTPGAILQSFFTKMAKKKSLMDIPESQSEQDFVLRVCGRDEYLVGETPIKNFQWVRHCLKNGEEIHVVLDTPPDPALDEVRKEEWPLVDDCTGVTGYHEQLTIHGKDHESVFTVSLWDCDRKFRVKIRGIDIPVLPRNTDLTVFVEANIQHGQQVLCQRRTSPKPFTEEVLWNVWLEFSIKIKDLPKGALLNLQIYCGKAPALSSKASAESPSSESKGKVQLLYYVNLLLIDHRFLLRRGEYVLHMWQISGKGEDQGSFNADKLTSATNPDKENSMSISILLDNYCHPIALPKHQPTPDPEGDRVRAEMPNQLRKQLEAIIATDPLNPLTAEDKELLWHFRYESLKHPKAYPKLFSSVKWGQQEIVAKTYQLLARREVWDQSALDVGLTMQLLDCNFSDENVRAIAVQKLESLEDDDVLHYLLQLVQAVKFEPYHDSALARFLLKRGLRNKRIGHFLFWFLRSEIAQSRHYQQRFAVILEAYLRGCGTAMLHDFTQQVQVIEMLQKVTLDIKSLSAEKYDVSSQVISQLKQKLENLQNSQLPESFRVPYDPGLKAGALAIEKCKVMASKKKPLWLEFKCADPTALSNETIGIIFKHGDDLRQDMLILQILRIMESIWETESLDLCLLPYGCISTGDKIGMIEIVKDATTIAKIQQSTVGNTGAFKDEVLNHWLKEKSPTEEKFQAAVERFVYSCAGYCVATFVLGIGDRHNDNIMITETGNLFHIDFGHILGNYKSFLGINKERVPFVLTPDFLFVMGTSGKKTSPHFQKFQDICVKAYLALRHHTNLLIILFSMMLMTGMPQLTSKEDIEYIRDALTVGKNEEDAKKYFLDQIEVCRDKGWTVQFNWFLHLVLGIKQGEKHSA

SMILES | IC50 (PI3Kγ (p120γ)) [nM] | IC50 (PI3Kα (p110α/p85α)) [nM] | EC50 (Phospho-Akt(Ser473)) [nM]
C=CC(=O)N1CCN(C(=O)C2CCN(Cc3cc4nc(-c5cccc6[nH]ncc56)nc(N5CCOCC5)c4s3)CC2)CC1 [II-a-31, 1-(4-(1-((2-(1H-indazol-4-yl)-4-morpholinothieno[3,2-d]pyrimidin-6-yl)methyl)piperidine-4-carbonyl)piperazin-1-yl)prop-2-en-1-one] | > 1000 | 100 to 1000 | –
C=CS(=O)(=O)N1CCN(Cc2cc3nc(-c4cccc5[nH]ncc45)nc(N4CCOCC4)c3s2)CC1 [II-a-1] | 100 to 1000 | 100 to 1000 | –
CCCC(=O)CCC(=O)NCC(=O)N1CCN(Cc2cc3nc(-c4cccc5[nH]ncc45)nc(N4CCOCC4)c3s2)CC1 [II^R-a-16] | > 1000 | 100 to 1000 | –
C/C=C/C(=O)CCC(=O)N(C)Cc1cc2nc(-c3cccc(O)c3)nc(N3CCOCC3)c2s1 [II-a-40, (E)-N-((2-(3-hydroxyphenyl)-4-morpholinothieno[3,2-d]pyrimidin-6-yl)methyl)-N-methyl-4-oxohept-5-enamide] | 100 to 1000 | 10 to 100 | –
C=CC(=O)N1CCN(c2ccc(-c3cc4nc(-c5cccc(O)c5)nc(N5CCOCC5)c4s3)cc2)CC1 [II-a-58, 1-(4-(4-(2-(3-hydroxyphenyl)-4-morpholinothieno[3,2-d]pyrimidin-6-yl)phenyl)piperazin-1-yl)prop-2-en-1-one] | > 1000 | 10 to 100 | –
CC(C)=CC(=O)CCC(=O)NCC(=O)N1CCN(Cc2cc3nc(-c4cccc5[nH]ncc45)nc(N4CCOCC4)c3s2)CC1 [II-a-41, N-(2-(4-((2-(1H-indazol-4-yl)-4-morpholinothieno[3,2-d]pyrimidin-6-yl)methyl)piperazin-1-yl)-2-oxoethyl)-6-methyl-4-oxohept-5-enamide] | > 1000 | > 1000 | –
C=CC(=O)NCC(=O)NCC(=O)N1CCN(Cc2cc3nc(-c4cccc5[nH]ncc45)nc(N4CCOCC4)c3s2)CC1 [II-a-32, N-(2-(2-(4-((2-(1H-indazol-4-yl)-4-morpholinothieno[3,2-d]pyrimidin-6-yl)methyl)piperazin-1-yl)-2-oxoethylamino)-2-oxoethyl)acrylamide] | > 1000 | 100 to 1000 | –
C=CC(=O)NCc1ccc(C(=O)N2CCN(Cc3cc4nc(-c5cccc6[nH]ncc56)nc(N5CCOCC5)c4s3)CC2)cc1 [II-a-21, N-(4-(4-((2-(1H-indazol-4-yl)-4-morpholinothieno[3,2-d]pyrimidin-6-yl)methyl)piperazine-1-carbonyl)benzyl)acrylamide] | > 1000 | > 1000 | –
CC(C)=CC(=O)c1ccc(C(=O)N2CC=C(c3cc(-c4cnc(N)nc4)nc(N4CCOCC4)c3)CC2)cc1 [XII-50, 1-(4-(4-(2-(2-aminopyrimidin-5-yl)-6-morpholinopyridin-4-yl)-1,2,3,6-tetrahydropyridine-1-carbonyl)phenyl)-3-methylbut-2-en-1-one] | – | 100 to 1000 | 100 to 1000
C=CC(=O)Nc1ccc(C(=O)N2CCC(n3ncc4c(N5CCOCC5)nc(-c5cnc(N)nc5)nc43)CC2)cc1 [VII-12, N-(4-(4-(6-(2-aminopyrimidin-5-yl)-4-morpholino-1H-pyrazolo[3,4-d]pyrimidin-1-yl)piperidine-1-carbonyl)phenyl)acrylamide] | – | 100 to 1000 | 10 to 100
C/C=C/C(=O)CCC(=O)NCc1ccc(-c2cc3nc(-c4cccc5[nH]ncc45)nc(N4CCOCC4)c3s2)cc1 [II-a-115, (E)-N-(4-(2-(1H-indazol-4-yl)-4-morpholinothieno[3,2-d]pyrimidin-6-yl)benzyl)-4-oxohept-5-enamide] | – | 10 to 100 | 100 to 1000
C/C=C/C(=O)CCCC(=O)Nc1ccc(S(=O)(=O)Nc2cc(-c3ccc4nccc(-c5ccncc5)c4c3)cnc2OC)cc1 [X-1, (E)-N-(4-(N-(2-methoxy-5-(4-(pyridin-4-yl)quinolin-6-yl)pyridin-3-yl)sulfamoyl)phenyl)-5-oxooct-6-enamide] | – | 100 to 1000 | ≤ 10
CC(C)=CC(=O)CCC(=O)N1CCC2(CC1)CN(c1cc(-c3cnc(N)nc3)nc(N3CCOCC3)c1)C2 [XII-39, 1-(2-(2-(2-aminopyrimidin-5-yl)-6-morpholinopyridin-4-yl)-2,7-diazaspiro[3.5]nonan-7-yl)-6-methylhept-5-ene-1,4-dione] | – | 10 to 100 | 100 to 1000
Cc1ccc(/C=C/C(=O)CCC(=O)N2CCN(Cc3cc4nc(-c5cccc6[nH]ncc56)nc(N5CCOCC5)c4s3)CC2)cc1 [II-a-139, (E)-1-(4-((2-(1H-indazol-4-yl)-4-morpholinothieno[3,2-d]pyrimidin-6-yl)methyl)piperazin-1-yl)-6-p-tolylhex-5-ene-1,4-dione] | – | 10 to 100 | 100 to 1000
Cn1cncc1/C=C/C(=O)CCC(=O)N1CCN(Cc2cc3nc(-c4cccc5[nH]ncc45)nc(N4CCOCC4)c3s2)CC1 [II-a-130, (E)-1-(4-((2-(1H-indazol-4-yl)-4-morpholinothieno[3,2-d]pyrimidin-6-yl)methyl)piperazin-1-yl)-6-(1-methyl-1H-imidazol-5-yl)hex-5-ene-1,4-dione] | – | 100 to 1000 | 10 to 100
C=C(C)C(=O)c1ccc(C(=O)N2CC=C(c3cc(-c4cnc(N)nc4)nc(N4CCOCC4)c3)CC2)cc1 [XII-49, 1-(4-(4-(2-(2-aminopyrimidin-5-yl)-6-morpholinopyridin-4-yl)-1,2,3,6-tetrahydropyridine-1-carbonyl)phenyl)-2-methylprop-2-en-1-one] | – | 10 to 100 | 100 to 1000
C=CC(=O)Nc1cccc(N2CC=C(c3cc(-c4cnc(N)nc4)nc(N4CCOCC4)c3)CC2)c1 [XII-48] | – | 100 to 1000 | 100 to 1000
C=CC(=O)Nc1ccc(C(=O)N2CC=C(c3cc(-c4cnc(N)nc4)nc(N4CCOCC4)c3)CC2)cc1 [XII-46, N-(4-(4-(2-(2-aminopyrimidin-5-yl)-6-morpholinopyridin-4-yl)-1,2,3,6-tetrahydropyridine-1-carbonyl)phenyl)acrylamide] | – | 100 to 1000 | 100 to 1000
CC(C)=CC(=O)CCCC(=O)N(C)Cc1cc2nc(-c3cnc(N)nc3)nc(N3CCOCC3)c2s1 [II-a-174, N-((2-(2-aminopyrimidin-5-yl)-4-morpholinothieno[3,2-d]pyrimidin-6-yl)methyl)-N,7-dimethyl-5-oxooct-6-enamide] | – | 10 to 100 | ≤ 10
O=C(/C=C/c1ccncc1)CCC(=O)N1CCN(Cc2cc3nc(-c4cccc5[nH]ncc45)nc(N4CCOCC4)c3s2)CC1 [II-a-141, (E)-1-(4-((2-(1H-indazol-4-yl)-4-morpholinothieno[3,2-d]pyrimidin-6-yl)methyl)piperazin-1-yl)-6-(pyridin-4-yl)hex-5-ene-1,4-dione] | – | 10 to 100 | 100 to 1000
